Results published in ChEMBL document CHEMBL1131476, “Synthesis of a methylenebis(phosphonate) analogue of mycophenolic adenine dinucleotide: a glucuronidation-resistant MAD analogue of NAD” (J Med Chem, 1998).

Legend:
K562 = assay: Inhibitory activity against growth of human erythroleukemia […] cells; assay type: functional, cell-based
[1] = target: Inosine-5'-monophosphate dehydrogenase 2 (Homo sapiens, UniProt P12268); assay: Inhibitory activity against human Inosine-5'-monophosphate dehydrogenase 2 (IMPDH type II isoform)
[2] = target: Inosine-5'-monophosphate dehydrogenase 1 (Homo sapiens, UniProt P20839); assay: Inhibitory activity against human Inosine-5'-monophosphate dehydrogenase 1 (IMPDH type I isoform); Range is 33-37 nM
Inosine-5'-monophosphate dehydrogenase 1, sequence (P20839 whole entry, canonical isoform): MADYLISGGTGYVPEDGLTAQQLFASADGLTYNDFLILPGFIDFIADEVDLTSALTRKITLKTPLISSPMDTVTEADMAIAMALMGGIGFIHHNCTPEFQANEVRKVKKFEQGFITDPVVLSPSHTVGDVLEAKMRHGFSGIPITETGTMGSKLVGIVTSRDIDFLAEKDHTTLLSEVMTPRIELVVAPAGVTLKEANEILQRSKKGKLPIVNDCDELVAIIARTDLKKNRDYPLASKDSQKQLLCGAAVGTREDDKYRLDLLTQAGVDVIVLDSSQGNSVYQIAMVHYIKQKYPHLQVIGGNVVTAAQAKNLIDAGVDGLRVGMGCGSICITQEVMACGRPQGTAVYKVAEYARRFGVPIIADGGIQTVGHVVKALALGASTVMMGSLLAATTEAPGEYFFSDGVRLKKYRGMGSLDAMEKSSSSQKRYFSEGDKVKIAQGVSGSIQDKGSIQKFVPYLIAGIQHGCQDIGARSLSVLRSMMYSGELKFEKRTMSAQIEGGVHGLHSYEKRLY

IC50 (K562) [µM] | Ki [1] [µM] | Structure (SMILES) | Ki [2] [µM]
1.5 |  | COc1c(C)c2c(c(O)c1C/C=C(\C)CCCO)C(=O)OC2 | 
1.5 | 0.3 | COc1c(C)c2c(c(O)c1C/C=C(\C)CCCOP(=O)(O)CP(=O)(O)OC[C@@H]1OC(n3cnc4c(N)ncnc43)[C@@H](O)[C@H]1O)C(=O)OC2 (stereo not given in full) | 

Structure (SMILES) | IC50 (K562) [µM] | Ki [1] [µM] | Ki [2] [µM]
COc1c(C)c2c(c(O)c1C/C=C(\C)CCC(=O)O)C(=O)OC2 [MYCOPHENOLIC ACID] | 0.08 |  | 0.033
